Six compounds from US11447485B2, “Class of bifunctional compounds with quanternary ammonium salt structure” (Beijing Showby Pharmaceutical Co., Ltd., priority 2016, dated 2022) can be followed below.

Structures are written as SMILES. Read-outs that look alike come from different tables or passages of the source.

A short description of data set [1]: Liver microsome metabolic stability in vitro (SD rat). The note with it: SD rat liver microsomes. As for the experimental part: (§1) The area ratio of the 0 min sample was taken as 100%, and the remaining percentage of the compound after incubation at different times was obtained at each time point by comparison with the sample. With the natural logarithm of this percentage on the ordinate and time on the abscissa, a scatter plot was drawn to simulate a straight line with a negative slope of k. The parameters were calculated according to the formula.
(§2) Liver weight indicates the liver weight (g) per kilogram of body weight, and P450 indicates the amount (mg) of P450 enzyme per gram of liver.

The test system of data set [2] is heart rate of Beagle dogs. Kind of data set: Heart rate changes after iv administration in Beagle dogs. It counts as in vivo, Beagle dog. The protocol:
Beagle dogs were randomly divided into two groups, half male and half female, and were intravenously injected (iv) with 7.5% ethanol solution of compounds of the invention and control compound. Each compound was set up in two dosage groups of 0.01 mg/kg and 0.10 mg/kg.

Data set [3] can be described thus: Liver microsome metabolic stability in vitro (human). The note with it: Human liver microsomes. As for the experimental part:
as §1, §2

Data set [4] is described as follows: Liver microsome metabolic stability in vitro (Beagle dog). The note with it: Beagle dog liver microsomes. The protocol:
as §1, §2
(In general: Microsomes from liver hold many membrane-bound enzymes, among them those of drug oxidation.)

Data set [5] deals with β2 receptor in guinea pig tracheal smooth muscle. Put plainly: BA activity: guinea pig isolated trachea pre-treated with histamine. Conditions: Cavia porcellus. As for the experimental part: (3) The Antagonism of the Example Compounds on β2 Receptor in Guinea Pig Tracheal Smooth Muscle
(§3) Preparation of an isolated tracheal smooth muscle specimen of a guinea pig: same as Experiment Example 1.
Administration Method: After the trachea flake was stabilized, histamine solution with a final concentration of 3×10^−5 mol/L was added for 10 min, carbachol with a final concentration of 3×10^−6 mol/L was added (observing β receptor antagonism), and administration was started when the pressure value of the trachea flake was increased to a stable platform. The experiments were divided into a blank group, a histamine+blank group, each test sample administration group and a histamine+each test sample administration group. DMSO solution prepared by K—H solution and 50 μl of test sample solution were added to each group of the blank group and each test sample administration group respectively. The histamine+blank group and histamine+each test sample administration group were added with 50 μl histamine solution for 10 min respectively, then added with DMSO solution prepared by K—H solution and 50 μl test sample solution. The test sample administration group was added with the compounds to be tested with final concentrations of 10^−9, 0.3×10^−8, 10^−8, 0.3×10^−7, 10^−7, 0.3×10^−6 and 10^−6 mol/L at cumulative concentration, and the blank group was added with corresponding diluted DMSO solution. The histamine+each test sample administration group was added with histamine for 10 min, and then added with the test compounds with final concentrations of 10^−9, 0.3×10^−8, 10^−8, 0.3×10^−7, 10^−7, 0.3×10^−6 and 10^−6 mol/L at cumulative concentration. After the histamine+blank group was added with histamine for 10 m, corresponding diluted DMSO solution was added. Medlab was used to record the relaxation degree of smooth muscle of the trachea flake. Finally theophylline with a final concentration of 2×10^−4 mol/L was added as 100% relaxation.

In data set [6] the test system is M receptor of guinea pig tracheal smooth muscle. Kind of data set: MA activity: guinea pig isolated trachea, propranolol blocks β receptor, CCh constriction. Conditions: Cavia porcellus; propranolol 10^−5 mol/L, CCh 3×10^−6 mol/L. As for the experimental part:
(2) Blocking Effect of Example Compounds on M Receptor of Guinea Pig Tracheal Smooth Muscle
as §3
Administration method: After trachea flake was stabilized, propranolol hydrochloride solution with a final concentration of 10^−5 mol/L was added to block β receptor for 10 min, carbachol with a final concentration of 3×10^−6 mol/L was added (observing M receptor antagonism of compound after propranolol blocks β receptor), and administration was started when the pressure value of the trachea flake was increased to a stable platform. The experiments were divided into a blank group, a propranolol+blank group, each test sample administration group and a propranolol+each test sample administration group. DMSO solution prepared by K—H solution and 50 μl of test sample solution were added to each group of the blank group and each test sample administration group respectively. The propranolol+blank group and propranolol+each test sample administration group were added with 50 μl propranolol solution for 10 min respectively, and then added with DMSO solution prepared from K—H solution and 50 μl of test sample solution. The test sample administration group was added with the compounds to be tested with final concentrations of 10^−9, 0.3×10^−8, 10^−8, 0.3×10^−7, 10^−7, 0.3×10^−6 and 10^−6 mol/L at cumulative concentration, and the blank group was added with corresponding diluted DMSO solution. The propranolol+each test sample administration group was added with propranolol for 10 min, and then added with the compounds to be tested with final concentrations of 10^−9, 0.3×10^−8, 10^−8, 0.3×10^−7, 10^−7, 0.3×10^−6 and 10^−6 mol/L at cumulative concentration. After the propranolol+blank group was added with propranolol for 10 min, corresponding diluted DMSO solution was added. Medlab was used to record the relaxation degree of tracheal smooth muscle, finally sodium nitroprusside with a final concentration of […] was added as 100% relaxation.

Data set [7] in a line: Lung homogenate stability in vitro (dog). It counts as in vitro ADME, Beagle dog. The note with it: 8 h, 37° C. The protocol:
The compounds of the invention were respectively incubated with the lung homogenate of Beagle dogs for 8 hours in a water bath at 37° C., and sample was analysed by LC-MS/MS when the reaction was terminated.

Data set [8] deals with guinea pig tracheal smooth muscle (MABA). Kind of data set: MABA activity: relaxation of CCh pre-constricted guinea pig isolated trachea. Conditions: Cavia porcellus; CCh 3×10^−6 mol/L. As for the experimental part:
(1) The Constriction Effect of Tracheal Smooth Muscle of Guinea Pig Induced by the Example Compounds Antagonizing Carbachol (CCh)
as §3
Administration Method: After the trachea flake were stabilized, carbachol with a final concentration of 3×10^−6 mol/L was added, and administration was started when the pressure value of the trachea flake was increased to a stable platform. The experiments were divided into blank group and each test sample administration group. DMSO solution prepared from K—H solution and 50 μl of each test sample solution were added to each group respectively. The test sample administration group was added with 10^−9, 0.3×10^−8, 10^−8, 0.3×10^−7, 10^−7, 0.3×10^−6 and 10^−6 mol/L of test compound and control substance at cumulative concentration. The blank group was added with corresponding diluted DMSO solution. Medlab was used to record the relaxation degree of smooth muscle of the trachea flake. Finally, isoproterenol with a final concentration of 10^−5 mol/L was added as 100% relaxation.

Data set [9] is described as follows: Lung homogenate stability in vitro (human). In kind it is in vitro ADME. Conditions: 8 h, 37° C.
The subject of data set [10] is bronchoconstriction response in the trachea of guinea pig induced by Mch. Put plainly: Bronchoconstriction induced by methacholine (Mch) in anaesthetized guinea pigs, airway dripping (Raw, Cdyn). The note with it: Mch 10 μg/kg iv; for Cdyn (ml/cmH2O) / Raw (cmH2O/ml/s): 30 min, Mean ± S.E.M.
Data set [11] deals with tracheal smooth muscle of guinea pig. Kind of data set: Relaxation of CCh-induced constriction of isolated guinea pig tracheal smooth muscle (Experimental Example 1). The note with it: for Onset time (min) ± SD / Time for eliminating inhibition effect (min): CCh 3 × 10^−6 mol/L; for EC50: Cavia porcellus, read-out: EC50 (μM) ± SD. The protocol: The upper end was connected with a muscle tension transducer, and the specimen was given a resting tension of 1.0 g. Muscle tension changes were recorded, nutrient solution was changed every 20 min, and the experiment was started after 60 min of equilibrium.
Administration Method: After the trachea flake were stabilized, 3×10^−6 mol/L CCh was added to the bath. […] Diastolic condition of the trachea flake was observed. If no response occurred (below the threshold concentration), the next dosage was continued to be added in the order. If any response occurred, the next dosage was added until its diastolic platform was reached. The above operation was repeated until the shrink curve reached the minimum. Finally, 10^−6 mol/L isoproterenol was added to establish maximum relaxation, and the curve was recorded.
Statistical Methods: Statistics was performed using the Sigma Stat statistical software package, the data was analyzed by using the variance analysis. Student-Newman-Keuls (SNK) test was used in comparison among multiple sample averages number. The statistical test level was α=0.05 (bilateral).

The target of data set [12] is T1, human recombinant β2 adrenoceptor (Homo sapiens, UniProt P07550).
T1 construct: expressed in transfected cells
Kind of data set: cell-based. The note with it: EC50 (β1)/EC50 (β2). It counts as cell-based.

Where [13] appears, read: in vitro, listed as Tiotropium bromine.

T1 sequence (P07550 whole entry): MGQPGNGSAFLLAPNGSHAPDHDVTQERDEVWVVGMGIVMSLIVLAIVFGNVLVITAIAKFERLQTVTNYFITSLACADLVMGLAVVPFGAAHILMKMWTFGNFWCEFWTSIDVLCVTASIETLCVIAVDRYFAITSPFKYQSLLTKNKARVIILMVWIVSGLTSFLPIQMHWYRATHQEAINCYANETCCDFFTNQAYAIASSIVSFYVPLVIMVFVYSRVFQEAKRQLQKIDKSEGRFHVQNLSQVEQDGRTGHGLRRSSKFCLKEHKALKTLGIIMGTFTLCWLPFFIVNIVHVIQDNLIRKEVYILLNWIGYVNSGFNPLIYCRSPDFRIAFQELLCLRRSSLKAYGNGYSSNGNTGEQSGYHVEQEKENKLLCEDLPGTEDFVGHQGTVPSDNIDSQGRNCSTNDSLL

Turning to `C[N+]1(C)CCC(OC(=O)Nc2cc(CCC(=O)Nc3ccc(CNC[C@H](O)c4ccc(O)c5[nH]c(=O)ccc45)cc3)ccc2-c2ccccc2)CC1.O=C([O-])C(F)(F)F` [4-({[5-(2-{[4-({[(2R)-2-hydroxy-2-(8-hydroxy-2-oxo-1,2-dihydroquinolin-5-yl)ethyl]amino}methyl)phenyl]carbamoyl}ethyl)-2-phenylphenyl]carbamoyl}oxy)-1,1-dimethylpiperidin-1-onium trifluoroacetate, reference compound], the “liver extraction rate (ERh)” value in [1] was 0.48; in [3], 0.36; in data set [4] it was 0.43. Also, the “0.5-4 h area increase under heart rate curve (%)” value (“0.5-4 h area increase … (%)” for short) is recorded as 35.2% in data set [2] (0.01 mg/kg iv) and 109% in [2] (0.10 mg/kg iv).

For `O=c1ccc2c([C@@H](O)CNCCCCCCCCCN3CCC(Cn4cnc([C@](O)(c5ccccc5)C5CCCCC5)n4)CC3)ccc(O)c2[nH]1` [5-[(1R)-2-({9-[4-({3-[(R)-cyclohexyl(hydroxy)benzyl)-1H-1,2,4-triazol-1-yl}methyl)piperidin-1-yl]nonyl}amino)-1-hydroxyethyl]-8-hydroxyquinolin-2(1H)-one, reference compound], the “liver extraction rate (ERh)” value in [1] amounted to 0.42; in data set [3] it was 0.62; in [4], 0.36. For the same compound, the “0.5-4 h area increase … (%)” value in data set [2] (0.01 mg/kg iv) was 69.7%; in [2] (0.10 mg/kg iv), 152%.

As for `OCc1cc([C@@H](O)CNCCCCCCCCC[N+]23CCC(CC2)[C@@H](OC[C@@](O)(c2ccccc2)C2CCCC2)C3)ccc1O.[Br-]` [Compound 7], the figures for the “liver extraction rate (ERh)” value in data set [1], in [3] and in [4] were 0.97, 0.94 and 0.98, respectively. Also, the 50% effective concentration (EC50) in [5] (read-out: BA (EC50, nM)) amounted to 162 ± 9.8 nM; in data set [6] it was 290 ± 12.3 nM; in [8], 72.3 ± 14.6 nM. Moreover, the “0.5-4 h area increase … (%)” value in [2] (0.01 mg/kg iv) is on record as −0.5%; in [2] (0.10 mg/kg iv), 0%. In addition, the “Residual rate after incubation of dog lung homogenate (%)” value in [7] came to 95%. Besides, in data set [9], the “Residual rate after incubation of human lung homogenate (%)” value is 93%.

As to `COc1cc(NC(=O)CC[N+]23CCC(CC2)[C@@H](OC[C@@](O)(c2ccccc2)C2CCCC2)C3)c(Cl)cc1CNC[C@H](O)c1ccc(O)c(NC=O)c1.[Br-]` [Compound 138], in data set [10] (0.1 μg/kg airway dripping), the “Cdyn (ml/cmH2O)” value is reported as 0.124 ± 0.019 ml/cmH2O, the “Raw (cmH2O/ml/s)” value came to 0.687 ± 0.079 cmH2O/ml/s, the “inhibitory rate of lung dynamic compliance decrease” value is 31.0% and the “inhibitory rate on airway resistance increase” value amounted to 74.8%. For the same compound, in data set [10] (0.3 μg/kg airway dripping), the “Cdyn (ml/cmH2O)” value was 0.158 ± 0.036 ml/cmH2O, the “Raw (cmH2O/ml/s)” value is on record as 0.508 ± 0.093 cmH2O/ml/s, the “inhibitory rate of lung dynamic compliance decrease” value was 48.2% and the “inhibitory rate on airway resistance increase” value came out at 88.9%. In addition, in data set [10] (1 μg/kg airway dripping), the “Cdyn (ml/cmH2O)” value is reported as 0.231 ± 0.022 ml/cmH2O, the “Raw (cmH2O/ml/s)” value stood at 0.418 ± 0.086 cmH2O/ml/s, the “inhibitory rate of lung dynamic compliance decrease” value came to 49.9% and the “inhibitory rate on airway resistance increase” value turned out to be 92.6%. In data set [11] (in vitro), the “Onset time (min) ± SD” value worked out at 6.56 ± 0.23 min and the “Time for eliminating inhibition effect (min)” value is “more than 300 min”. In data set [11], the EC50 is 0.0186 ± 0.0033 µM. In [12], the “sel (β1/β2)” value is on record as 228.3.

As for `OCc1cc(C(O)CNCCCCCCOCCCCc2ccccc2)ccc1O` (stereo not shown) [Salmeterol, reference compound], the EC50 in data set [5] (histamine 3×10^−5 mol/L, read-out: BA (EC50)) came out at 93.8 ± 6.8 nM.

Consider `C[N+]1(C)[C@@H]2C[C@@H](OC(=O)C(O)(c3cccs3)c3cccs3)C[C@H]1[C@@H]1O[C@@H]12` [Tiotropium Bromide, tiotropium bromide, reference compound], for which the EC50 in [6] is 12.2 ± 0.8 nM; in data set [11] (constriction induced by CCh 3 × 10^−6 mol/L, in vitro), 0.0142 ± 0.0022 µM. Moreover, the “Onset time (min) ± SD” value is given as “slow” in [11] (in vitro) and 30.37 ± 0.50 min in data set [11] (setting [13]). The figures for the “Time for eliminating inhibition effect (min)” value in [11] (in vitro) and in data set [11] (setting [13]) were “long duration of action” and “more than 300 min”, respectively.

In general, EC50 refers to the midpoint of the concentration-response curve.
